Test results taken from ChEMBL document CHEMBL2073754, “Cotransport of reduced glutathione with bile salts by MRP4 (ABCC4) localized to the basolateral hepatocyte membrane” (Hepatology, 2003).

Columns and labels:
Type in all cases: functional, cell membranes, Membrane vesicle
Parameters in all cases: scale not given: the % may be the effect or the level left
[1] = molecular target: T1, MRP4 (ABCC4) (Homo sapiens, UniProt O15439); test: TP_TRANSPORTER: inhibition of Taurocholate uptake in the presence of Ursodeoxycholate at a concentration of 20uM in membrane vesicles from MRP4-expressing V79 cells; conditions: hamster, probe taurocholate, read-out: Activity
T1 sequence (O15439 whole entry): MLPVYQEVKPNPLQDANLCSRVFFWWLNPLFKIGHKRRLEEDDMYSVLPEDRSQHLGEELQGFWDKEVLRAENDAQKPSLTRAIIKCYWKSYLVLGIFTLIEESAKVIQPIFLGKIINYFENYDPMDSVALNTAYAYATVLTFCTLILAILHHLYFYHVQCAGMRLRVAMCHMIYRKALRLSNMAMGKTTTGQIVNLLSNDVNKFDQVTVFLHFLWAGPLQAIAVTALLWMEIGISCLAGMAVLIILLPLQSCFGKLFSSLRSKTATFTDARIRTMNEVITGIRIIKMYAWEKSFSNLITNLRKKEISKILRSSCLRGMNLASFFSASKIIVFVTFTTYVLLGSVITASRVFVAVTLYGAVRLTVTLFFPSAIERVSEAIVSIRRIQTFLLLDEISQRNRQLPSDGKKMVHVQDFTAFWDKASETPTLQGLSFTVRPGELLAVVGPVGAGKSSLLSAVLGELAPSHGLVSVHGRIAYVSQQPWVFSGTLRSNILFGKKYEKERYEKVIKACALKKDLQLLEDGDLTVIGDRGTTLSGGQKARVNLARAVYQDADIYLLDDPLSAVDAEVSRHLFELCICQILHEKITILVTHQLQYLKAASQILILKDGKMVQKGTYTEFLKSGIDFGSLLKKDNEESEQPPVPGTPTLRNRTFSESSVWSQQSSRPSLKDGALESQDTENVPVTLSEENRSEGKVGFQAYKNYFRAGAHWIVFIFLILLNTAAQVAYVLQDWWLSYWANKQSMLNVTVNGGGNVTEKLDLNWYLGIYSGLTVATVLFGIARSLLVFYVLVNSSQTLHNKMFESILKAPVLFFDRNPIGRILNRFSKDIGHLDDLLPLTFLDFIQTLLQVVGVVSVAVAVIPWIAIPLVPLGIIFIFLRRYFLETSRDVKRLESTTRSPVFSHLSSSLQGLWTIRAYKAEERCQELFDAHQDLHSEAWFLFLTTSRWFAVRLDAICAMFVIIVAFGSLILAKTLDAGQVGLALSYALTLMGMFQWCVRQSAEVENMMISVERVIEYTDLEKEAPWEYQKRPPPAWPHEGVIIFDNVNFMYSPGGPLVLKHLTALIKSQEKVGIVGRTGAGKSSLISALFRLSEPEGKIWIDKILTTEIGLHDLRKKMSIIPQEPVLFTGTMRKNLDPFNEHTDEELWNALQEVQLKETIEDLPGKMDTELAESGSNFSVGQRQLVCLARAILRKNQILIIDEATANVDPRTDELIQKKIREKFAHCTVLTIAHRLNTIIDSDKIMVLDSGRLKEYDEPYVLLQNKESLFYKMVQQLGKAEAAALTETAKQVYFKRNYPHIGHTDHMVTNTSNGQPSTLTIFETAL

[2] = molecular target: T1, MRP4 (ABCC4); test: TP_TRANSPORTER: inhibition of Taurocholate uptake in the presence of Tauroursodeoxycholate at a concentration of 20uM in membrane vesicles from MRP4-expressing V79 cells; conditions: hamster, probe taurocholate, read-out: Activity
[3] = molecular target: T1, MRP4 (ABCC4); test: TP_TRANSPORTER: inhibition of Taurocholate uptake in the presence of Methotrexate at a concentration of 20uM in membrane vesicles from MRP4-expressing V79 cells; conditions: hamster, probe taurocholate, read-out: Activity
[4] = molecular target: T2, ATP-binding cassette sub-family C member 4 (Homo sapiens, UniProt O15439); test: TP_TRANSPORTER: inhibition of Taurocholate uptake in the presence of MK-571 at a concentration of 20uM in membrane vesicles from MRP4-expressing V79 cells; conditions: hamster, v79, 20 µM
T2 sequence (O15439 whole entry): T1 sequence (O15439 whole entry)

[5] = molecular target: T2, ATP-binding cassette sub-family C member 4; test: TP_TRANSPORTER: inhibition of Taurocholate uptake in the presence of Lithocholate at a concentration of 20uM in membrane vesicles from MRP4-expressing V79 cells; conditions: hamster, v79, 20 µM
[6] = molecular target: T1, MRP4 (ABCC4); test: TP_TRANSPORTER: inhibition of Taurocholate uptake in the presence of Lithoglycocholate at a concentration of 20uM in membrane vesicles from MRP4-expressing V79 cells; conditions: hamster, probe taurocholate, read-out: Activity
[7] = molecular target: T2, ATP-binding cassette sub-family C member 4; test: TP_TRANSPORTER: inhibition of Taurocholate uptake in the presence of Probenecid at a concentration of 20uM in membrane vesicles from MRP4-expressing V79 cells; conditions: hamster, v79, 20 µM
[8] = molecular target: T1, MRP4 (ABCC4); test: TP_TRANSPORTER: inhibition of Taurocholate uptake in the presence of Dehydroepiandrosterone-3-sulfate at a concentration of 5uM in membrane vesicles from MRP4-expressing V79 cells; conditions: hamster, probe taurocholate, read-out: Activity
[9] = molecular target: T1, MRP4 (ABCC4); test: TP_TRANSPORTER: inhibition of Taurocholate uptake in the presence of Dipyridamole at a concentration of 20uM in membrane vesicles from MRP4-expressing V79 cells; conditions: hamster, probe taurocholate, read-out: Activity
[10] = molecular target: T1, MRP4 (ABCC4); test: TP_TRANSPORTER: inhibition of Taurocholate uptake in the presence of Glycocholate at a concentration of 20uM in membrane vesicles from MRP4-expressing V79 cells; conditions: hamster, probe taurocholate, read-out: Activity
[11] = molecular target: T1, MRP4 (ABCC4); test: TP_TRANSPORTER: inhibition of Taurocholate uptake in the presence of Folate at a concentration of 20uM in membrane vesicles from MRP4-expressing V79 cells; conditions: hamster, probe taurocholate, read-out: Activity
[12] = molecular target: T1, MRP4 (ABCC4); test: TP_TRANSPORTER: inhibition of Taurocholate uptake by Taurochenodeoxycholate at a concentration of 20uM in membrane vesicles from MRP4-expressing V79 cells; conditions: hamster, probe taurocholate, read-out: Activity

In the case of C[C@H](CCC(=O)O)[C@H]1CC[C@H]2[C@@H]3[C@@H](O)C[C@@H]4C[C@H](O)CC[C@]4(C)[C@H]3CC[C@]12C [URSODIOL], the activity at 20 µM [1] is reported as 18%.
Compound C[C@H](CCC(=O)NCCS(=O)(=O)O)[C@H]1CC[C@H]2[C@@H]3[C@@H](O)C[C@@H]4C[C@H](O)CC[C@]4(C)[C@H]3CC[C@]12C [TAURURSODIOL] has an activity at 20 µM [2] of 26%.
CN(Cc1cnc2nc(N)nc(N)c2n1)c1ccc(C(=O)N[C@@H](CCC(=O)O)C(=O)O)cc1 [METHOTREXATE] was tested, and the activity at 20 µM [3] was 39%.
CN(C)C(=O)CCSC(SCCC(=O)O)c1cccc(/C=C/c2ccc3ccc(Cl)cc3n2)c1 (configuration not stated) [MK-571] was tested, and the Activity [4] was 9%.
C[C@H](CCC(=O)O)[C@H]1CC[C@H]2[C@@H]3CC[C@@H]4C[C@H](O)CC[C@]4(C)[C@H]3CC[C@]12C [LITHOCHOLIC ACID] showed an Activity [5] of 68%.
For C[C@H](CCC(=O)NCC(=O)O)[C@H]1CC[C@H]2[C@@H]3CC[C@@H]4C[C@H](O)CC[C@]4(C)[C@H]3CC[C@]12C [LITHOGLYCOCHOLATE], the activity at 20 µM [6] was 9%.
In the case of CCCN(CCC)S(=O)(=O)c1ccc(C(=O)O)cc1 [PROBENECID], the Activity [7] is reported as 52%.
C[C@]12CC[C@H](OS(=O)(=O)O)CC1=CC[C@@H]1[C@@H]2CC[C@]2(C)C(=O)CC[C@@H]12 [PRASTERONE SULFURIC ACID] was tested, and the activity at 5 µM [8] was 34%.
Work on OCCN(CCO)c1nc(N2CCCCC2)c2nc(N(CCO)CCO)nc(N3CCCCC3)c2n1 [DIPYRIDAMOLE] yielded an activity at 20 µM [9] of 32%.
C[C@H](CCC(=O)NCC(=O)O)[C@H]1CC[C@H]2[C@@H]3[C@H](O)C[C@@H]4C[C@H](O)CC[C@]4(C)[C@H]3C[C@H](O)[C@]12C [GLYCOCHOLIC ACID] was tested, and the activity at 20 µM [10] was 45%.
Nc1nc2ncc(CNc3ccc(C(=O)N[C@@H](CCC(=O)O)C(=O)O)cc3)nc2c(=O)[nH]1 [FOLIC ACID] was tested, and the activity at 20 µM [11] was 63%.
In the case of C[C@H](CCC(=O)NCCS(=O)(=O)O)[C@H]1CC[C@H]2[C@@H]3[C@H](O)C[C@@H]4C[C@H](O)CC[C@]4(C)[C@H]3CC[C@]12C [TAUROCHENODEOXYCHOLATE], the activity at 20 µM [12] is reported as 11%.
